Measurements: PubChem BioAssay AID1919007 (Molecular Pharmacology Branch, DTP, NCI, 2023)

Tested on: A498 complex spheroids with HUVEC/MSC, growth
Assay: Anticancer human tumor A498 cell line growth inhibition [AhR];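 note: seven day exposure starting three days after spheroid seeding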;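 for viability, T/C: luminescence signal used as a surrogate for viable cells; luminescence viability scaled so 100% equals DMSO vehicle wells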
Conditions: for IC50: curve of first compound; for viability, T/C: stronger effect = lower value
Summary of the method: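 Spheroids combined tumor cells with HUVEC endothelial cells and human MSCs as stroma. AhR antagonists were paired with standard or investigational drugs, each dosed in half-log steps down from near clinical Cmax, or from 10 microM where Cmax was unknown.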

[1] = second compound 0.1 µM, first compound 0.00949 µM
[2] = second compound 0.1 µM, first compound 0.03 µM
[3] = second compound 0.1 µM, first compound 0.0949 µM
[4] = second compound 0.1 µM, first compound 0.3 µM
[5] = second compound 0.316 µM, first compound 0.00949 µM
[6] = second compound 0.316 µM, first compound 0.03 µM
[7] = second compound 0.316 µM, first compound 0.0949 µM
[8] = second compound 0.316 µM, first compound 0.3 µM
[9] = second compound 1 µM, first compound 0.00949 µM
[10] = second compound 1 µM, first compound 0.03 µM
[11] = second compound 1 µM, first compound 0.0949 µM
[12] = second compound 1 µM, first compound 0.3 µM
[13] = second compound 3.16 µM, first compound 0.00949 µM
[14] = second compound 3.16 µM, first compound 0.03 µM
[15] = second compound 3.16 µM, first compound 0.0949 µM
[16] = second compound 3.16 µM, first compound 0.3 µM
[17] = second compound 10 µM, first compound 0.00949 µM
[18] = second compound 10 µM, first compound 0.03 µM
[19] = second compound 10 µM, first compound 0.0949 µM
[20] = second compound 10 µM, first compound 0.3 µM

Structure (SMILES) | IC50 (second compound 0.1 µM) | IC50 (second compound 0.316 µM) | IC50 (second compound 1 µM) | IC50 (second compound 3.16 µM) | IC50 (second compound 10 µM) | viability, T/C [1] | viability, T/C [2] | viability, T/C [3] | viability, T/C [4] | viability, T/C [5] | viability, T/C [6] | viability, T/C [7] | viability, T/C [8] | viability, T/C [9] | viability, T/C [10] | viability, T/C [11] | viability, T/C [12] | viability, T/C [13] | viability, T/C [14] | viability, T/C [15] | also measured
CCN(c1cc(-c2ccc(CN3CCOCC3)cc2)cc(C(=O)NCc2c(C)cc(C)[nH]c2=O)c1C)C1CCOCC1 + Cc1ccccc1N=Nc1ccc(NC(=O)c2ccnn2C)c(C)c1 | > 3000 nM | > 3000 nM | > 3000 nM | > 3000 nM | > 3000 nM | 92.6% | 96.8% | 94.3% | 89.7% | 95.4% | 98.9% | 98.2% | 96.8% | 91.3% | 92.9% | 90.8% | 91.2% | 86.7% | 92.6% | 91% | viability, T/C (second compound 0.1 µM, first compound 0.949 µM): 93.1%; viability, T/C (second compound 0.1 µM, first compound 3 µM): 98.4%; viability, T/C (second compound 0.316 µM, first compound 0.949 µM): 96.4%; viability, T/C (second compound 0.316 µM, first compound 3 µM): 104%; viability, T/C (second compound 1 µM, first compound 0.949 µM): 85.2%; viability, T/C (second compound 1 µM, first compound 3 µM): 91.6%; viability, T/C [16]: 89.2%; viability, T/C (second compound 3.16 µM, first compound 0.949 µM): 87.7%; viability, T/C (second compound 3.16 µM, first compound 3 µM): 86.3%; viability, T/C [17]: 95.6%; viability, T/C [18]: 91%; viability, T/C [19]: 95%; viability, T/C [20]: 89.5%; viability, T/C (second compound 10 µM, first compound 0.949 µM): 92.5%; viability, T/C (second compound 10 µM, first compound 3 µM): 96.3%
Nc1ncn(C2CC(O)C(CO)S2)c(=O)n1 (stereo not given) + CC(CO)NC(=O)c1cc(-c2ccc(Cl)cc2)nn(-c2cnn(C)c2)c1=O | > 300 nM | > 300 nM | > 300 nM | > 300 nM | > 300 nM | 96.3% | 93.8% | 83.6% | 68.8% | 95.5% | 86% | 83.4% | 72.1% | 98.2% | 92.5% | 87.4% | 70.3% | 105% | 76.6% | 69.7% | viability, T/C (second compound 0.1 µM, first compound 0.000949 µM): 98%; viability, T/C (second compound 0.1 µM, first compound 0.003 µM): 101%; viability, T/C (second compound 0.316 µM, first compound 0.000949 µM): 93%; viability, T/C (second compound 0.316 µM, first compound 0.003 µM): 109%; viability, T/C (second compound 1 µM, first compound 0.000949 µM): 96.5%; viability, T/C (second compound 1 µM, first compound 0.003 µM): 99%; viability, T/C (second compound 3.16 µM, first compound 0.000949 µM): 87.5%; viability, T/C (second compound 3.16 µM, first compound 0.003 µM): 90.9%; viability, T/C [16]: 70.6%; viability, T/C (second compound 10 µM, first compound 0.000949 µM): 74.9%; viability, T/C (second compound 10 µM, first compound 0.003 µM): 78.3%; viability, T/C [17]: 78.3%; viability, T/C [18]: 71.9%; viability, T/C [19]: 65%; viability, T/C [20]: 59.3%
